Laboratory results published in patent EP4803511A1, “SMALL MOLECULE COMPOUND HAVING SULFONIC ACID OR SULFINIC ACID LACTONE STRUCTURE, COMPOSITION AND USE THEREOF” (Hangzhou Phecdamed Co., Ltd., priority 2023, dated 2025).

How the values were obtained:
[1] = Permeability into skin using a Franz diffusion cell; format: in vitro ADME, Bama miniature pig; settings: for Concentration of the compound to be test in the skin, Mean / Concentration of the compound to be test in the skin, Skin-1 / Concentration of the compound to be test in the skin, Skin-2 / Concentration of the compound to be test in the skin, Skin-3: 0.1 mg/mL solution, 32 °C
Experimental: Experimental materials: skin from the back of a one-month-old Bama miniature pig, 0.8-1.0 mm thick; 0.1 mg/mL solution of the compound to be test, dissolvent: 50 mM Sodium Phosphate Buffer (PB) buffer solution containing 20% ethanol.
Experimental procedure: • 1. 400 uL solution of the compound to be test was pipetted into the feed cell, repeated three times. • 2. About 7600 uL of 50 mM PB buffer solution was added to the corresponding receiving cell. • 3. The compound to be test was permeated at 32 °C for 2 hrs and 6 hrs. • 4. At 2 hrs and 6 hrs, the skin was washed with 50 mM PB buffer solution containing 20% ethanol, the skin from the permeation area was removed and homogenized, and acetonitrile solution containing internal standard was added. • 5. Centrifugation was performed, 100 µL of the supernatant was taken and added into 100 µL of purified water, after mixing uniformly, quantitative analysis was performed by LC-MS/MS.

[2] = test system: wild-type AB strain zebrafish; assay: Zebrafish tail amputation model, inflammatory repair efficacy (inflammatory cells at the broken tail); format: in vivo; settings: I-8 at 1, 3, and 9 µg/mL, 48 hrs; compared with the modeling group, statistical significance
Experimental: Experimental animal: Healthy wild-type AB strain zebrafish at 3 dpf (days post fertilization)
Evaluation of wound repair efficacy: Healthy AB strain zebrafish were taken as experimental animal, and randomly divided into blank control group, modeling group, positive control group, and sample group. The zebrafish in the blank control group were treated with culture water; the zebrafish in the modeling group were treated with culture water after cutting the caudal fin; the zebrafish in the positive control group and sample group were treated with 600 µg/mL hyaluronic acid and I-8 with different concentrations (1, 3, 9 µg/mL) respectively after cutting the caudal fin. The larva fish in above groups were placed in a constant temperature incubator at 28.5 °C and kept in continuous darkness for 48 hrs, with the culture medium changed once every 24 hrs. […] The data were statistically analyzed using GraphPad software.
Evaluation of inflammatory repair efficacy: As described above, the larva fish in each group were placed in a constant temperature incubator at 28.5 °C and kept in continuous darkness for 48 hrs. Inflammatory cells in the fish body were labeled with neutral red, and the number of inflammatory cells at the broken tail was counted. The data were statistically analyzed using GraphPad software.

[3] = test system: LAMA5; assay: LN-5 gene expression in HaCaT human immortalized keratinocytes; format: cell-based; settings: 24 hrs, dose-dependent
Source text: Skin fragility is partly attributed to changes in hemidesmosomes and the expression downregulation of various collagen proteins (Collagen I, III, IV, VII) or laminins (such as LN-5) at the dermal-epidermal junction. LN-5 has been proven to be a component of anchoring fibers in the basement membrane of the skin, cornea, conjunctiva, and other tissues. LN-5 participates in cell-cell interactions through the mediation of integrins and proteoglycans, thereby playing a crucial role in cell adhesion, growth, migration, and differentiation. The appearance of wrinkles is closely related to the normal synthesis and expression of collagen and laminins. Therefore, the increase of the above collagen content and LN-5 can achieve a certain role in resisting wrinkles, and plays an important role in the aging process of the skin. Therefore, the anti-wrinkle effect of the compound to be tested was evaluated by detecting the level of Collage I protein of […] by ELISA, and detecting the transcription levels of epidermal cells (keratinocytes) III, IV, VII and LN -5 by Real-Time PCR. The following Test Examples 8-1 and 8-2 evaluated the anti-wrinkle efficacy of compounds using HaCaT human immortalized keratinocytes and HSF human skin fibroblasts. […]

O=S1(=O)Oc2cc(O)ccc2-c2ccc(O)cc21 [Compound I-8]
Concentration of the compound to be test in the skin, Mean ([1]; Time 2 h): 7167 ng/g
Concentration of the compound to be test in the skin, Skin-1 ([1]; Time 2 h): 7450 ng/g
Concentration of the compound to be test in the skin, Skin-2 ([1]; Time 2 h): 6600 ng/g
Concentration of the compound to be test in the skin, Skin-3 ([1]; Time 2 h): 7450 ng/g
Concentration of the compound to be test in the skin, Mean ([1]; Time 6 h): 11417 ng/g
Concentration of the compound to be test in the skin, Skin-1 ([1]; Time 6 h): 13650 ng/g
Concentration of the compound to be test in the skin, Skin-2 ([1]; Time 6 h): 10450 ng/g
Concentration of the compound to be test in the skin, Skin-3 ([1]; Time 6 h): 10150 ng/g
permeation amount ([1]; within 6 hours): 10 µg/g
number of inflammatory cells at the wound [2]: decreased
LAMA5 gene expression [3]: upregulate
